# Laboratory results reported in patent US20260174745A1, “COMPOSITIONS AND METHODS FOR TREATING NF1 AND OTHER CONDITIONS” (priority 2022, published 2026).
# How the values were obtained:
# [1] = tested on: NF1-ipNF 95.6 neurofibroma cells; assay: p-ERK expression by western blotting in neurofibroma cells; format: cell-based, human; conditions: 3 hours; for reduction of p-ERK expression: 50 nM selumetinib, 200 nM compound 1 or combination
# Method: (§1) FIGS. 6A and 6B are a […] and a plot, respectively, generated from experiments on NF1-ipNF 95.6 neurofibroma cells treated with 50 nM selumetinib (Sel), 5 nM trametinib (Tra, an alternative MEK inhibitor used as a control), 200 nM compound 1, or the combination for 3 hours. Protein expression was evaluated by western blotting and LiCOR imaging (A). In B, cells were treated with 200 nM MSU42011, 100 nM Sel or the combination for 72 hrs, and cell viability measured using an MTT assay. *, P<0.05 vs. other groups.
# RXR = RXR activation; conditions: read-out: EC50 in activating RXR
# [2] = tested on: NF1-ipNF 95.6 neurofibroma cells; assay: MTT cell viability in neurofibroma cells; format: cell-based, human; conditions: 200 nM MSU42011, 100 nM selumetinib or combination, 72 hrs
# Method: as §1
# Kras-driven lung tumors = assay: Established Kras-driven lung tumors in A/J mice (vinyl carbamate initiation); format: in vivo
# Method: FIG. 2 is photographs of mouse lungs and mouse lung tissue section stains collected […] of Kras mutations with vinyl carbamate. A/J mice were fed control diet or RXR agonists (100 mg/kg diet or 25 mg/kg body weight) for 12 weeks. Lungs were harvested and photographed (A) and then sectioned and stained with hematoxylin and eosin (“H & E”) to evaluate tumor grade (B) as defined in collaboration with a human lung cancer pathologist. […] Compound 1 has the structure: FIG. 3 is a plot of tumor burden and photographs of mouse lung tissue section stains. Eight weeks after initiation of Kras mutations, A/J mice were fed control diet or compound 1 (25 mg/kg) for 12 weeks. Lungs were sectioned and stained with H & E or by immunohistochemistry (“IHC”) to evaluate tumor burden or biomarkers, respectively. […] FIG. 4 is plots showing data collected from lung tumors induced in A/J mice as described in FIG. 3. After 12 weeks of treatment with compound 1 (25 mg/kg) or control diet, lungs were harvested. Immune cell populations in the lungs were analyzed by flow cytometry using an optimized multi-colored panel of antibodies.
# [3] = Triglyceride elevation in vivo
# THP1 macrophages = assay: CCL2 mRNA (qPCR) in THP1 macrophages stimulated with conditioned medium from ipNF95.6 cells; format: cell-based, human; conditions: 50 nM selumetinib, 200 nM compound 1 or combination, 24 hrs, PMA + CM
# Method: FIG. 8 is a plot showing results of experiments involving THP1 human monocytes that were differentiated into macrophages with 50 ng/ml PMA for 3 days, followed by treatment with conditioned medium (CM) from ipNF95.6 neurofibroma cells and drugs (50 nM selumetinib (Sel), 200 nM compound 1, or the combination) for an additional 24 hrs. CCL2 expression was evaluated by qPCR and normalized to the DMSO control without treatment with PMA+CM (not shown). Data represent means±standard deviations of two independent experiments, p<0.05 vs. DMSO control.
# FIG. 10A is a plot showing the results where THP1 monocytes were differentiated into macrophages with 50 ng/ml PMA for 3 days, followed by treatment with CM from human PNF cells (ipNF95.6) and drugs (50 nM selumetinib, 200 nM compound 1, or the combination) for an additional 24 hrs.
# Combination treatment with compound 1 and selumetinib decreased CCL2 mRNA expression in THP1 cells and BMDM stimulated with conditioned media (CM) from human and mouse PNF cells. […] CCL2 mRNA expression was evaluated by qPCR and normalized to the DMSO control without CM treatment (not shown). Data represent means±standard deviations. * p<0.05, ** p<0.01 compared with vehicle treatment.
# mammary tumors [4] = assay: MMTV-neu mice with established mammary tumors; format: in vivo; conditions: for T cell / immune cell populations in mammary tumors: flow cytometry and IHC
# Method: FIG. 5 is plots and stains obtained from MMTV-neu mice with established mammary tumors, which were treated with compound 1 for 10 days. Tumor size (A) was evaluated by calipers, immune cell populations by flow cytometry (B) and IHC (C). n=8 mice/group in A-C and n=4/group for quantification (D) of PCNA and p-ERK optical density. The data in FIG. 5 compound 1 reduces tumor burden and p-ERK and alters T cell populations in mammary tumors.
# mammary tumors [5] = conditions: previously shown; cited from earlier work
# [6] = Triglyceride levels in LL2 dose ranging study; conditions: bexarotene 30 mg/kg; plasma
# Method: In this study, 7-8 week old male C57/BL6 mice were injected with 1×10^6 LL2 cells subcutaneously into the left flank. Tumors were measured with calipers twice per week (Monday and Thursday) and mice were weighed once per week (Monday). […] When tumors reached endpoint (20×20 mm or ulceration), mice were euthanized and tumors fixed in formalin. Blood was collected for plasma. Stats: two-way ANOVA w/Tukey HSD.
# LL2 cells = assay: LL2 subcutaneous tumor dose ranging study; format: in vivo, C57/BL6 mice; conditions: bexarotene 30 mg/kg
# [7] = flow cytometry of lungs, p<0.05
smiles,measurement,setting,value
"CC(C)N(c1cc(C(C)(C)C)cc(C(C)(C)C)c1)c1ccc(C(=O)O)cn1 [compound 1, 6-[(3,5-di-tert-butylphenyl) (propan-2-yl)amino]pyridine-3-carboxylic acid]",reduction of p-ERK expression,[1],approximately 70%
same,expression of p-ERK,"[1]; 200 nM compound 1, 50 nM selumetinib",decreases
same,EC50,RXR,30 nM
same,cell viability,[2],reduces viability
same,lung tumor burden,"Kras-driven lung tumors; 25 mg/kg in diet, 12 weeks",significantly (p=0.0015) reduced
same,tumor-promoting CD206+ macrophages within lung tumors,Kras-driven lung tumors; IHC,reduced
same,p-ERK levels within lung tumors,"Kras-driven lung tumors; IHC, p=0.03",reduced
same,"activated cytotoxic T cells (ratio of CD8+/CD4+, CD25+)",Kras-driven lung tumors; [7],increased
same,immunosuppressive CD4+CD25+ Tregs,Kras-driven lung tumors; [7],decreased
same,tumors that were high grade,"Kras-driven lung tumors; histopathology, control group 77%, p<0.05",62%
same,average tumor burden lower compared to the control and bexarotene groups,"Kras-driven lung tumors; lungs of A/J mice, 100 mg/kg diet (25 mg/kg body weight), 12 weeks, p=0.015",60%
same,"number, size and histopathology of lung tumors",Kras-driven lung tumors; vs untreated controls and bexarotene-treated mice,significantly (p<0.05) decreased
same,elevation of triglycerides in vivo,[3],does not elevate triglycerides
same,decrease of CCL2 mRNA expression,THP1 macrophages,23%
same,T cell / immune cell populations in mammary tumors,mammary tumors [4],alters
same,T cell / immune cell populations in mammary tumors,mammary tumors [4]; listed as Compound 1,alters the same immune cells in this model as LG100268
same,p-ERK in mammary tumors,"mammary tumors [4]; treated 10 days, IHC optical density",reduces
same,tumor burden in mammary tumors,"mammary tumors [4]; treated 10 days, calipers",reduces
Cc1cc2c(cc1C1(c3ccc(C(=O)O)cn3)CC1)C(C)(C)CCC2(C)C [LG100268],"CD206+ tumor-promoting macrophages, MDSCs and Foxp3+ Tregs in tumors",mammary tumors [5],decreased
same,number of activated cytotoxic CD8 T cells in tumors,mammary tumors [5],increased
"Cn1cnc2c(F)c(Nc3ccc(Br)cc3Cl)c(C(=O)NOCCO)cc21 [selumetinib, reference compound]",reduction of p-ERK expression,[1],~40%
C=C(c1ccc(C(=O)O)cc1)c1cc2c(cc1C)C(C)(C)CCC2(C)C [bexarotene],triglyceride levels,[6],raises triglycerides
same,activity against the tumors,LL2 cells,not active against the tumors
same,"CD206+ tumor-promoting macrophages, MDSCs and Foxp3+ Tregs in tumors",mammary tumors [5],not observed
same,number of activated cytotoxic CD8 T cells in tumors,mammary tumors [5],not observed
